Patent US5789434A, “Derivatives of substituted 4-biarylbutyric acid as matrix metalloprotease inhibitors” (priority 1995, dated 1998)

Columns and labels:
Assay type in all cases: biochemical
[1] = molecular target: T1, MMP-3 (Homo sapiens, UniProt P08254); assay: Automated MMP Profiling Assay, MMP-3 fluorogenic; details: for IC50: 96-well automated, P218
T1 construct: Truncated Prostromelysin-257 was expressed in a soluble form in E.coli; made in house; host or cells: E. coli
Description: This assay with each invention compound was run with the three enzymes MMP-3, MMP-9 and MMP-2 in parallel as adapted for a 96-well microtitre plate using a Hamilton A® workstation.

[2] = molecular target: T2, MMP-2 (Homo sapiens, UniProt P08253); assay: Automated MMP Profiling Assay, MMP-2 fluorogenic; details: 96-well automated, P218; read-out: MMP-2 Fluorogenic IC50 (profiling)
T2 sequence (P08253 110-660): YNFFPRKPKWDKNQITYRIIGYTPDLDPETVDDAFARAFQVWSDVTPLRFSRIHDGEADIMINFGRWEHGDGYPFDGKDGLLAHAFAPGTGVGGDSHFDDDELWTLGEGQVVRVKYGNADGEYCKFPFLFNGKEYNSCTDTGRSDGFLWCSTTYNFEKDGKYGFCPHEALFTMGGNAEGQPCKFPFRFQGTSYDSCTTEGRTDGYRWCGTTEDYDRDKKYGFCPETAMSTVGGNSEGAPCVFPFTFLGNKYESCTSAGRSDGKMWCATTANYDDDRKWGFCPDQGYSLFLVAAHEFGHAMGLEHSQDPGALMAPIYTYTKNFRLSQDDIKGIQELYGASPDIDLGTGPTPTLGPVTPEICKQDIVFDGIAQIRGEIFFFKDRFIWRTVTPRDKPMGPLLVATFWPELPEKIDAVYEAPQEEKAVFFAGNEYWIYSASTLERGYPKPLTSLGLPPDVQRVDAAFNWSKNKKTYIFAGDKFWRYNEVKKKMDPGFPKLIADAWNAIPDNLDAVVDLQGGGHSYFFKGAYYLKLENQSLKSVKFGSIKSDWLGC

[3] = molecular target: T3, MMP-9 (Homo sapiens, UniProt P14780); assay: Automated MMP Profiling Assay, MMP-9 fluorogenic; details: for IC50: 96-well automated, P218
T3 construct: from tissue; host or cells: human polymorphonuclear leukocytes (PMN) from whole blood (New York Blood Center), PMA-stimulated supernatant
T3 sequence (P14780 107-707 limits assumed): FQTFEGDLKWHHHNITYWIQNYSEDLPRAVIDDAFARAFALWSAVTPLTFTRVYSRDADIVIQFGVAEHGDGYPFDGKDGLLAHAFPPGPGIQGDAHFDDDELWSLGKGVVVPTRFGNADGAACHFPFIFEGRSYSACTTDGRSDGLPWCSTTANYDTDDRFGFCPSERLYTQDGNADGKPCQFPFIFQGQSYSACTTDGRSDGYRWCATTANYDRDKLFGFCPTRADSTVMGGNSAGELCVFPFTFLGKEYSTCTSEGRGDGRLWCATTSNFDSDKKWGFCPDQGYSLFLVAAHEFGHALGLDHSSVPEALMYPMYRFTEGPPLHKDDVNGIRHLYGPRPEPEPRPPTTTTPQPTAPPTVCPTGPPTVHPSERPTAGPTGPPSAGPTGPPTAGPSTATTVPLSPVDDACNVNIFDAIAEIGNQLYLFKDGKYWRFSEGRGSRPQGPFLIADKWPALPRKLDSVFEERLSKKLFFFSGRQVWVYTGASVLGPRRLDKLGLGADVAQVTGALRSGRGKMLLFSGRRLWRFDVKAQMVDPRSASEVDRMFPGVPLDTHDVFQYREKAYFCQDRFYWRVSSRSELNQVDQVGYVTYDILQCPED
Experimental: Briefly, polymorphonuclear leukocytes (PMN) preparations were isolated as described above from 3 or more units of freshly drawn whole blood obtained from the New York Blood Center (New York, N.Y.). Cells were resuspended in phosphate buffered saline (PBS) containing 100 ng/ml phorbol myristate acetate (PMA) in the presence of 50 mM diisopropylfluorophospate (DFP), 1 μg/ml leupeptin and aprotinin, and 1 mg/ml catalase for 1 hr at 37° C. Supernatants were collected by centrifugation (300×g) and the samples were frozen at -70° C. All chromatographic methods were performed at 4° C. Thawed samples were concentrated 5-fold using an Amicon chamber equipped with a YM-10 membrane. The concentrate was pressure dialyzed against 0.02M Tris-HCl, 0.1M NaCl, 1 mM CaCl2, 1 μM ZnCl2, 0.001% Brij-35, 0.02% sodium azide (NaN3), pH 7.5 and applied to DEAE ion exchange chromatography resin which was previously equilibrated with the same buffer at a flow rate of 0.4 ml/min. The column was extensively washed with the same buffer and gelatinase was eluted as 4 ml fractions from the column with 0.02M Tris-HCl, 0.5M NaCl, 1 mM CaCl2, 1 μM ZnCl2, 0.001% Brij-35, 0.02% NaN3, pH 7.5. Gelatinase containing fractions were observed by gelatin zymography (see below), loaded onto a gelatin agarose affinity resin and washed with the same buffer. Gelatinase activity was eluted at a flow rate of 1 ml/min from the column as 1 ml fractions with 0.02M Tris-HCl, 1M NaCl, 1 mM CaCl2, 1 μM ZnCl2, 0.001% Brij-35, 0.02% NaN3, pH 7.5 containing 10% dimethyl sulfoxide (DMSO). The fractions containing gelatinase activity were pooled and dialyzed against 0.005M Tris-HCl, 5 mM NaCl, 0.5 mM CaCl2, 0.1 μM ZnCl2, 0.001% Brij-35, pH 7.4. The protein content associated with material was determined with a micro-BCA assay (Pierce, Rockford, Ill.), lyophilized and reconstituted to a desired working concentration (100 μg/ml).
This assay was run with a protocol analogous to that reported for MMP-3 inhibition using the synthetic peptide P218 and each of the three enzymes and measuring quenched fluorescence. This assay with each invention compound was run with the three enzymes MMP-3, MMP-9 and MMP-2 in parallel as adapted for a 96-well microtitre plate using a Hamilton A® workstation.

[4] = molecular target: T3, MMP-9; assay: Thiopeptilide MMP-9 Inhibition Assay; details: for IC50: pH 6.5, x (n) = average of n determinations, read-out: MMP-9: Thiopep. IC50
[5] = molecular target: T1, MMP-3; assay: Primary Thiopeptilide MMP-3 Inhibition Assay
Experimental: Enzyme: recombinant stromelysin expressed in E.coli and purified as described above. […] The protocols for the assay of compounds as stromelysin inhibitors was the same as that used for MMP-9 except that the assay buffer was 50 mM MES, pH 6.5 containing 150 mM NaCl, 10 mM CaCl2, 0.005% Brij, and 1% DMSO.

T1 sequence (P08254 100-274 limits assumed): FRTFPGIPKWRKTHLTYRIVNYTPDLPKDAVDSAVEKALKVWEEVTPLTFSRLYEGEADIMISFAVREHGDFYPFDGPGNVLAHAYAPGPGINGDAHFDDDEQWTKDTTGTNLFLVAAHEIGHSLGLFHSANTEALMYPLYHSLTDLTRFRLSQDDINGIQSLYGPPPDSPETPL

SMILES	IC50 [1]	IC50 [2]	IC50 [3]	further results
O=C(CC(CCN1C(=O)c2ccccc2C1=O)C(=O)O)c1ccc(-c2ccc(Cl)cc2)cc1 (racemic) [Example 267, 4-[4-(4-chlorophenyl)phenyl]-4-oxo-2-(2-phthalimidoethyl)butanoic acid]	15 nM	2.6 nM	3 nM	–
O=C(O)[C@H]1CN(C(=O)OCc2ccccc2)C[C@@H]1C(=O)c1ccc(-c2ccc(Cl)cc2)cc1 (relative stereo) [Example 174, 1,3-Pyrrolidinecarboxylic acid, 4-[(4'-chloro[1,1'-biphenyl]-4-yl)carbonyl]-1,-(phenylmethyl) ester, trans-]	144 nM	56 nM	522 nM	–
O=C(O)[C@@H]1CN(Cc2ccccc2)C[C@H]1C(=O)c1ccc(-c2ccc(Cl)cc2)cc1 (relative stereo) [Example 175, 3-Pyrrolidinecarboxylic acid, 4-[(4'-chloro[1,1'-biphenyl]-4-yl)carbonyl]-1-(phenylmethyl)-, trans-]	–	5000 nM	–	inhibition at 5 µM [1]: 28%; inhibition at 5 µM [3]: 6%
O=C(O)[C@H]1[C@H](C(=O)c2ccc(-c3ccc(Cl)cc3)cc2)[C@H]2C=C[C@@H]1C2 (relative stereo) [Example 176, Bicyclo[2.2.1]hept-5-ene-2-carboxylic acid, 3-[(4'-chloro[1,1'-biphenyl]-4-yl)carbonyl]-, (2-endo-,3-exo)-]	–	2000 nM	–	inhibition at 5 µM [1]: 26%; inhibition at 5 µM [3]: 24%
O=C(O)[C@@H]1[C@@H](C(=O)c2ccc(-c3ccc(Cl)cc3)cc2)[C@H]2C=C[C@@H]1C2 (relative stereo) [Example 177, Bicyclo[2.2.1]hept-5-ene-2-carboxylic acid, 3-[(4'-chloro[1,1'-biphenyl]-4-yl)carbonyl]-, (2-endo-,3-endo)-]	–	4330 nM	–	inhibition at 5 µM [1]: 11%; inhibition at 5 µM [3]: 30%
O=C(O)c1ccccc1S[C@H]1CC[C@H](C(=O)c2ccc(-c3ccc(Cl)cc3)cc2)[C@H]1C(=O)O (relative stereo) [Example 301, Benzoic acid, 2-[[2-carboxy-3-[(4'-chloro[1,1'-biphenyl]-4-yl)carbonyl]cyclopentyl]thio]-, [1S-(1α,2α,3β)]-]	30 nM	18 nM	290 nM	–
O=C(O)[C@H]1[C@@H](Sc2ccccc2)CC[C@@H]1C(=O)c1ccc(-c2ccc(Cl)cc2)cc1 (relative stereo) [Example 313, Cyclopentanecarboxylic acid, 2-[(4'-chloro[1,1'-biphenyl]-4-yl)carbonyl]-5-(phenylthio)-, (1α,2β,5α)-]	3330 nM	2780 nM	–	inhibition at 5 µM [3]: 20%
CCCCCOc1ccc(-c2ccc(C(=O)[C@H]3CC[C@H](Sc4ccccc4)[C@@H]3C(=O)O)cc2)cc1 (relative stereo) [Example 317, Cyclopentanecarboxylic acid, 2-[[4'-(pentyloxy)[1,1'-biphenyl]-4-yl]carbonyl]-5-(phenylthio)-, (1α,2β,5α)-]	75 nM	37 nM	808 nM	–
O=C(O)[C@H]1[C@H](CN2C(=O)c3ccccc3C2=O)CC[C@@H]1C(=O)c1ccc(-c2ccc(Cl)cc2)cc1 (relative stereo) [Example 360, trans-5-[4-(4-chlorophenyl)phenylcarbonyl]-trans-2-phthalimidomethylcyclopentanecarboxylic acid]	5.46 nM	1.46 nM	0.93 nM	–
Cc1ccc(/C=C/[C@@H]2CC[C@H](C(=O)c3ccc(-c4ccc(Cl)cc4)cc3)[C@H]2C(=O)O)cc1 (relative stereo) [Example 363, Cyclopentanecarboxylic acid, 2-[(4'-chloro[1,1'-biphenyl]-4-yl)carbonyl]-5-[2-(4-methylphenyl)ethenyl]-, [1α,2β,5β(E)]-]	5000 nM	< 5000 nM	–	inhibition at 5 µM [3]: 37%
COCOC[C@@H]1CC[C@H](C(=O)c2ccc(-c3ccc(Cl)cc3)cc2)[C@H]1C(=O)O (relative stereo) [Example 364]	46 nM	40 nM	180 nM	–
O=C(O)[C@H]1[C@H](COCc2ccccc2)CC[C@@H]1C(=O)c1ccc(-c2ccc(Cl)cc2)cc1 (relative stereo) [Example 365, Cyclopentanecarboxylic acid, 2-[(4'-chloro[1,1'-biphenyl]-4-yl)carbonyl]-5-[(phenylmethoxy)methyl]-, (1α,2β,5β)-]	27 nM	13 nM	58 nM	–
O=C(O)[C@H]1[C@H](COc2ccccc2)CC[C@@H]1C(=O)c1ccc(-c2ccc(Cl)cc2)cc1 (relative stereo) [Example 366, Cyclopentanecarboxylic acid, 2-[(4'-chloro[1,1'-biphenyl]-4-yl)carbonyl]-5-(phenoxymethyl)-, (1α,2β,5β)-]	22 nM	6.7 nM	56 nM	–
O=C(OC[C@@H]1CC[C@H](C(=O)c2ccc(-c3ccc(Cl)cc3)cc2)[C@H]1C(=O)O)c1ccccc1 (relative stereo) [Example 367]	44 nM	37 nM	38 nM	–
COC(=O)c1ccccc1C(=O)OC[C@@H]1CC[C@H](C(=O)c2ccc(-c3ccc(Cl)cc3)cc2)[C@H]1C(=O)O (relative stereo) [Example 368]	36 nM	31 nM	30 nM	–
Nc1cccc2c1C(=O)N(C[C@@H]1CC[C@H](C(=O)c3ccc(-c4ccc(Cl)cc4)cc3)[C@H]1C(=O)O)C2=O (relative stereo) [Example 392, Cyclopentanecarboxylic acid, 2-[(4-amino-1,3-dihydro-1,3-dioxo-2H-isoindol-2-yl)methyl]-5-[(4'-chloro[1,1'-biphenyl]-4-yl)carbonyl]-, (1α,2β,5β)-]	2.5 nM	–	–	–
O=C(CC(CCN1C(=O)[C@H]2CC=CC[C@H]2C1=O)C(=O)O)c1ccc(-c2ccc(Cl)cc2)cc1 (relative stereo) [Example 413, 2H-Isoindole-2-butanoic acid, α-[2-(4'-chloro[1,1'-biphenyl]-4-yl)-2-oxoethyl]-1,3,3a,4,7,7a-hexahydro-1,3-dioxo-, cis-]	39 nM	–	109 nM	–
O=C(CC(CSc1ccccc1)C(=O)O)c1ccc(-c2ccc(Cl)cc2)cc1 (stereo not shown) [Example 196, 4-[4-(4-chlorophenyl)phenyl]-4-oxo-2-(phenylthiomethyl)butanoic acid]	–	37 nM	955 nM	IC50 [4]: 438 nM
O=C(CC(CCCc1ccccc1)C(=O)O)c1ccc(-c2ccc(Cl)cc2)s1 (stereo not drawn) [Example 349, 2-Thiophenebutanoic acid, 5-(4-chlorophenyl)-γ-oxo-α-(3-phenylpropyl)-]	–	–	–	IC50 [4]: 330 nM; IC50 ([5]; pH 6.5, 13 nM stromelysin, x (n) = average of n determinations, read-out: MMP-3 Thiopep. IC50): 550 nM
O=C(CC(CCCc1ccccc1)C(=O)O)c1ccc(-c2ccc(Cl)cc2)o1 (stereo not drawn) [Example 350, 2-Furanbutanoic acid, 5-(4-chlorohenyl)-γ-oxo-α-(3-phenylpropyl)-]	–	–	–	inhibition at 5 µM ([4]; at 5 μM, read-out: MMP-9: Thiopep. % inhibition): 20%; inhibition at 5 µM ([5]; at 5 μM, read-out: MMP-3 Thiopep. % inhibition): 4%
